Laboratory results from patent US9115092B2, “Substituted quinazoline and pyrido-pyrimidine derivatives” (Asana Biosciences, LLC, priority 2010, dated 2015).

Experiments:
pAKT(5473) in PC3 tumor = assay: In vivo PK/PD study, PC3 tumor bearing mice, pAkt(5473); settings: Mus musculus, 50 mg/kg po single dose
Protocol: (§1) PC3 cells were cultured at 37° C. in a 5% CO2 incubator using Hams F12 K medium. Ten million (10^7) cells were injected subcutaneously to the right flank region of athymic male mice (Harlan, age: 6-7 weeks, weight: about 20 g). Tumor bearing mice were randomized when the tumor volume reached about 250 mm^3 and three mice were used per each time point. Test compounds of formula (I) were formulated in 40% HPCD in 1×PBS, pH 7.4 and dosed orally at 50 mg/kg single dose (dose volume−10 mL/kg). Plasma and tumor samples were collected at 0 (vehicle control animals), 1, 4 and 24 hours post dosing. Blood was drawn (retro orbital) to a tube containing 0.2% EDTA for plasma collection. The tumor was excised from the mouse and immediately frozen in liquid nitrogen for PD analysis. Tumor and plasma drug concentrations were measured for PK analysis using LC-MS.
(§2) Snap frozen tumor samples were pulverized in a mortar (Belart) containing liquid nitrogen and tumor powder was stored at −80° C. until analysis. Pre coated ELISA kits (Cell Signaling Technology; pAKT(T308), CST#7135; pAKT(5473), CST#7134 and pS6RP, CST#7205) were used for PD analysis. Tumor powder was transferred to Eppendorf® tubes and lysis buffer (1 mL) was added to the powder. […] The detection for pAKT was based on chemiluminescence and pS6RP was based on absorbance. […]

pAKT(T308) in PC3 tumor = assay: In vivo PK/PD study, PC3 tumor bearing mice, pAkt(T308) Western blot; settings: 50 mg/kg po, at 8 hours
Protocol: as §1, §2

PI3 kinase isoform δ = PI3 kinase isoform δ (Homo sapiens, UniProt O00329); assay: PI3 Kinase TR-FRET assay, isoform δ; format: biochemical; settings: read-out: inhibition of PI3 kinase isoform δ, IC50
Protocol: The ability of compounds of the invention to inhibit PI3K activity was determined in a homogeneous TR-FRET assay using a PI3K assay kit (Millipore, USA; cat #33-016) according to manufacturer's instructions. PI3-Kinases (isoforms α, β, γ and δ) catalyze the phosphorylation of phosphatidylinositol, PIP2 to PIP3 in the presence of ATP and Mg^2+. The PIP3 product is detected by displacement of biotin-PIP3 from an energy transfer complex consisting of Europium labeled anti-GST monoclonal antibody, a GST-tagged PH domain, biotinylated PIP3 and Streptavidin-APC. Excitation of Europium in the complex results in an energy transfer to the APC and a fluorescence emission at 665 nm. The PIP3 product displaces biotin-PIP3 from the complex resulting in a loss of energy transfer and thus a decrease in signal.
To test for the ability of compounds to inhibit the activity of PI3Kα (wild-type), exemplary compounds of formula (I) were dissolved in DMSO and directly distributed into 384-well plates at a volume of 0.5 μL. 14.5 μL of P110/P85α/PIP2 mixture in buffer (obtained from the Millipore kit) containing MgCl2 (40 mM) and DTT (5 mM) was added to compound wells and incubated for 60 min at room temperature. P110/P85α was expressed in SF9 insect cells and purified nickel column extraction. Five ng of wild-type P110/P85α was used in the assay. The kinase reaction was started by the addition of ATP. The assay concentrations of both PIP2 and ATP were 10 μM. The reaction mixture was incubated for 30 min at room temperature and was terminated by the addition of stop mix and detection mix. Fluorescence was measured at 615 and 665 nm upon excitation at 340 nm in a Victor™ V5 fluorometer (Perkin Elmer, USA). The fluorescence emission ratio at 665 to 615 nm, proportional to the kinase activity, was plotted against the compound concentration to generate dose-response curves and IC50 values were determined using GraphPad Prism® 5 software.
The activity of PI3 kinase isoforms β, γ and δ were assayed in a similar manner to the assay protocol described above for PI3Kα, by substituting the appropriate p110/p85 isoform for the p110α/p85α. Compounds of formula (I) caused inhibition of PI3 kinase isoforms β, γ and δ as determined by these assays. For example, the compounds of examples 3, 51, 54, 111, 113, 115, and 253 each caused inhibition of PI3 kinase isoform β with IC50 values <50 nM. The compounds of examples 104, 133, 146 and 152 each caused inhibition of PI3 kinase isoform β with IC50 values <500 nM. The compounds of examples 3, 51, 54, 104, 111, 113, 115, 133, 253, and 152 each caused inhibition of PI3 kinase isoform γ with IC50 values <500 nM. […] The compounds of examples 2, 3, 51, 54, 111, 113, and 253 each caused inhibition of PI3 kinase isoform […] with IC50 values >1 μM.

BT474 tumor cells = assay: In vivo efficacy study (tumor growth suppression), BT474 xenograft; settings: BT474 xenograft mice, after 14 days of dosing at 40 mg/kg bid po
pS6RP in BT474 tumor = assay: In vivo PK/PD study, BT474 tumor-bearing xenograft mice, pS6RP; settings: for suppression of pS6RP in tumor tissue samples by Western blot: 2 weeks at 40 mg/kg bid po
Protocol: as §1
Snap frozen tumor samples were pulverized in a mortar (Belart) containing liquid nitrogen and tumor powder was stored at −80° C. until analysis. Pre coated ELISA kits (Cell Signaling Technology; pAKT(T308), CST#7135; pAKT(5473), CST#7134 and pS6RP, CST#7205) were used for PD analysis. Tumor powder was transferred to Eppendorf® tubes and lysis buffer (1 mL) was added to the powder. Protease and phosphatase inhibitors (SIGMA) and phenylmethanesulfonylfluoride (PMSF) were added to tumor powder and mixed by vortexing followed by sonication (15 sec). Samples were kept on an ice bath for 30 min. Supernatant was separated after centrifugation at 10,000 rpm for 20 min at 4° C. Supernatant was re-centrifuged and fresh supernatant was aliquoted to different tubes. Total protein was estimated using a BCA kit (Thermo Scientific) and 50 μg total protein was loaded to each well. […] The detection for pAKT was based on chemiluminescence and pS6RP was based on absorbance. […]
(§3) In vivo pharmacokinetic/pharmacodynamic (PK/PD) studies were also carried out using BT474 tumor cells and the corresponding tumor-bearing xenograft mice, and compounds of the invention were determined to be active in this assay. […]

[1] = system: pAkt(5473) in BT474 tumor; assay: In vivo PK/PD study, BT474 tumor-bearing xenograft mice, pAkt(5473); settings: 2 weeks at 40 mg/kg bid po
Protocol: as §1
(§4) Snap frozen tumor samples were pulverized in a mortar (Belart) containing liquid nitrogen and tumor powder was stored at −80° C. until analysis. […] The detection for pAKT was based on chemiluminescence and pS6RP was based on absorbance. […]
as §3

[2] = system: pAkt(T308) in BT474 tumor; assay: In vivo PK/PD study, BT474 tumor-bearing xenograft mice, pAkt(T308); settings: 2 weeks at 40 mg/kg bid po
Protocol: as §1, §4, §3

PI3 kinase isoform δ, sequence (O00329 whole entry, the tested form may be a part, canonical isoform): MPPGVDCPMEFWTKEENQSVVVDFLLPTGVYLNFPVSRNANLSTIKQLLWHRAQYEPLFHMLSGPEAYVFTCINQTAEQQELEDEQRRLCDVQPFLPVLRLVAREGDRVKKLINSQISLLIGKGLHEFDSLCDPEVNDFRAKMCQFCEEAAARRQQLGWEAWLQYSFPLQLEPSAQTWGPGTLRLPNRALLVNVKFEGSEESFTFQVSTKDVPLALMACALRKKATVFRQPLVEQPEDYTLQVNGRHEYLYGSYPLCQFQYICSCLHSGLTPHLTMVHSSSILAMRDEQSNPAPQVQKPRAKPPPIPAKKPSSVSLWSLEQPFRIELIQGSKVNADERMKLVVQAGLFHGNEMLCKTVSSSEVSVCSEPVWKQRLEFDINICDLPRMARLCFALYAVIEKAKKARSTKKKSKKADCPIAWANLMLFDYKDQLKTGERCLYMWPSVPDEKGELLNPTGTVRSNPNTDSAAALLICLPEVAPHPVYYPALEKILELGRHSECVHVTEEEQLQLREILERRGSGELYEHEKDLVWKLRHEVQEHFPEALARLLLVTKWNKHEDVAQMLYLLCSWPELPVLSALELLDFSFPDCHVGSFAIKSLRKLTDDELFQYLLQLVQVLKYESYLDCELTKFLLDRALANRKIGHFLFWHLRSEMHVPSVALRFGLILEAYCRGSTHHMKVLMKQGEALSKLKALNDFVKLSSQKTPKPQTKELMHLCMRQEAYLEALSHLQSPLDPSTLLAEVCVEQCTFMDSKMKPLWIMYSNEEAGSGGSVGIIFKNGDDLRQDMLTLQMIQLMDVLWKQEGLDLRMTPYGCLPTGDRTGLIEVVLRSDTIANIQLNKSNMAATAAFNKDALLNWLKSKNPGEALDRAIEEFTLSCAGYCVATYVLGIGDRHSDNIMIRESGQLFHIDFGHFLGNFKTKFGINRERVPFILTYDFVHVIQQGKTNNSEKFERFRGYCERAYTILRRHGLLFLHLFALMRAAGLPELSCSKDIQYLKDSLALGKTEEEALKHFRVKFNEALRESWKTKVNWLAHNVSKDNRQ
PI3 kinase isoform δ, sequence (P27986 whole entry partner, the tested form may be a part, canonical isoform): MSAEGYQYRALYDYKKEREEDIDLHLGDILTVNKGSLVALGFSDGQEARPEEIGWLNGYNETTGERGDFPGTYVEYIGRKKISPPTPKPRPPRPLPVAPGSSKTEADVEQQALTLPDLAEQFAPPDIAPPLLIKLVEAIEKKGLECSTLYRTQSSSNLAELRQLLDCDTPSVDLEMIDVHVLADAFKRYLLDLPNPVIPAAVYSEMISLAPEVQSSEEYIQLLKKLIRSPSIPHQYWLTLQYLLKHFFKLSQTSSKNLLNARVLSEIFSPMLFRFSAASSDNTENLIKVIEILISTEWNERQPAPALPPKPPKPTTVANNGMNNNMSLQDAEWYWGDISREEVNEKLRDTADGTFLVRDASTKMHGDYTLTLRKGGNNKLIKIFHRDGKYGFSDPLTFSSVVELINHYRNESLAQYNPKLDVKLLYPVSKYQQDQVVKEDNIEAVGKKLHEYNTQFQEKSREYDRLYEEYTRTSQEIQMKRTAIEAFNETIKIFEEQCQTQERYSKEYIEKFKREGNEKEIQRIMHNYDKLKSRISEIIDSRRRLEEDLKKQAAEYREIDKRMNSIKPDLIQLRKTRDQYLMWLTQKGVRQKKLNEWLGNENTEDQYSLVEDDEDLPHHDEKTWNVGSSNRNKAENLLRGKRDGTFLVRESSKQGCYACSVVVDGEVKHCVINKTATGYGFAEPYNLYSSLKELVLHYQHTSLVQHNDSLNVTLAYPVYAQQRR

With `CN(C)C(=O)c1ccc(NC(=O)Nc2ccc(-c3nc(N4CCOCC4)c4ccc(-c5cncnc5)cc4n3)cc2)cc1` [Example 1, N,N-Dimethyl-4-(3-{4-[4-morpholin-4-yl-7-pyrimidin-5-yl-quinazolin-2-yl)-phenyl]-ureido}-benzamide] the inhibition at 50 mg/kg (pAKT(5473) in PC3 tumor; at 1 and 4 hours) was about 50%.
In the case of `CN(C)C(=O)c1ccc(NC(=O)Nc2ccc(-c3nc(N4CCOCC4)c4ccc(-c5cncnc5)cc4n3)cc2)c(F)c1` [Example 133, 3-fluoro-N,N-dimethyl-4-(3-(4-(4-morpholino-7-(pyrimidin-5-yl)quinazolin-2-yl)phenyl)ureido)-benzamide], the “suppression of pAkt(T308) by Western blot analysis” value (pAKT(T308) in PC3 tumor) is reported as “significant suppression”.
For `CN(C)C(=O)c1ccc(NC(=O)Nc2ccc(-c3nc(N4CCOCC4)c4ccc(-c5cccnc5F)cc4n3)cc2)c(F)c1` [Example 146, 3-fluoro-4-(3-(4-(7-(2-fluoropyridin-3-yl)-4-morpholino-quinazolin-2-yl)phenyl)ureido)-N,N-dimethyl-benzamide], the “suppression of pAkt(T308) by Western blot analysis” value (pAKT(T308) in PC3 tumor) was “significant suppression”.
In the case of `CN(C)C(=O)c1ccc(NC(=O)Nc2ccc(-c3nc(N4CCOCC4)c4ccc(-c5ccco5)cc4n3)cc2)cc1` [Example 51, 4-{3-[4-(7-furan-2-yl-4-morpholin-4-yl-quinazolin-2-yl)-phenyl]-ureido}-N,N-dimethyl-benzamide], the IC50 (PI3 kinase isoform δ) is reported as over 1000 nM, the “tumor growth inhibition relative to vehicle control group” value (BT474 tumor cells) is reported as “about 70%” and the “suppression of pS6RP in tumor tissue samples by Western blot” value (pS6RP in BT474 tumor) is reported as “significant suppression”. The inhibition at 30 mg/kg (pS6RP in BT474 tumor; Mus musculus, BT-474, 30 mg/kg po, at 4 and 24 hours) was 30 to 40%, the “suppression of pAkt(5473) in tumor tissue samples by Western blot” value [1] was “significant suppression” and the “suppression of pAkt(T308) in tumor tissue samples by Western blot” value [2] was “significant suppression”.
With `Cc1ccc(-c2ccc3c(N4CCOCC4)nc(-c4ccc(NC(=O)Nc5ccc(C(=O)N(C)C)cc5)cc4)nc3c2)o1` [Example 2, N,N-Dimethyl-4-(3-{4-[7-(5-methyl-furan-2-yl)-4-morpholin-4-yl-quinazolin-2-yl]-phenyl}-ureido)-benzamide] the inhibition at 50 mg/kg (pAKT(5473) in PC3 tumor; at 4 and 24 hours) was 25 to 30%, the IC50 (PI3 kinase isoform δ) was over 1000 nM and the “tumor growth inhibition relative to vehicle control group” value (BT474 tumor cells) was “about 65%”. The “suppression of pS6RP in tumor tissue samples by Western blot” value (pS6RP in BT474 tumor) was “significant suppression”, the “suppression of pAkt(5473) in tumor tissue samples by Western blot” value [1] was “significant suppression” and the “suppression of pAkt(T308) in tumor tissue samples by Western blot” value [2] was “significant suppression”.
